Reference: patent US8343475B2, “Small cationic antimicrobial peptides” (priority 2006, dated 2013)
Converted amounts (≈) assume the structure as drawn. Residues, ends and D or L forms follow the SMILES beside them.

Experiments:
[1] = system: Pseudomonas aeruginosa PAO1 strain H103; type: cell-based
Outline: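 Modified broth microdilution MIC in Mueller Hinton medium, peptides diluted in 0.01% acetic acid/0.2% BSA, polypropylene plates. Inoculum 2-7×10^5 CFU/ml, overnight at 37 °C; MIC is the lowest concentration with no visible growth.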

[2] = system: Enterococcus faecalis ATCC29212; type: cell-based; conditions: ATCC29212
Outline: (§1)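 MIC by modified broth microdilution in Mueller Hinton medium. Peptides were diluted in 0.01% acetic acid with 0.2% BSA and added at 10× to inoculum of 2-7×10^5 CFU/ml, then incubated overnight at 37 °C. MIC is the lowest concentration with no visible growth.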

[3] = system: Escherichia coli UB1005; type: cell-based; conditions: UB1005
Outline: as §1

[4] = system: Staphylococcus aureus ATCC25923; type: cell-based; conditions: ATCC25923
Outline: as §1

[5] = system: clinical isolate of Staphylococcus epidermidis; type: cell-based; conditions: clinical isolate of
Outline: as §1

[6] = system: lab isolate of Candida albicans; type: cell-based; conditions: lab isolate of
Outline: as §1

[7] = system: wild-type Salmonella enterica ssp. typhimurium; type: cell-based
Outline: as §1

[8] = system: clinical isolates of MRSA; type: cell-based, Staphylococcus aureus
Protocol: (§2) Minimal inhibitory concentration (MIC) determination. The MIC of the peptides were measured using a modified broth microdilution method in Mueller Hinton (MH) medium (Wu M, Hancock R E W. 1999. Interaction of the cyclic antimicrobial cationic peptide bactenecin with the outer and cytoplasmic membrane. J Biol Chem 274, 29-35). Briefly, the peptides were dissolved and stored in glass vials. The assay was performed in sterile 96-well polypropylene microtitre plates were used. Serial dilutions of the peptides to be assayed were performed in 0.01% acetic acid (Fisher) containing 0.2% bovine serum albumin (Boehringer Mannheim GmbH) at 10× the desired final concentration. Ten microlitres of the 10× peptides were added to each well of a 96-well polypropylene plate containing 90 μl of MH media per well. Bacteria were added to the plate from an overnight culture at 2-7×10^5 colony forming units/ml and incubated over night at 37° C. The MIC was taken as the concentration at which no growth was observed.
(§3) All peptides derived from the 1st, 2nd, and 3rd quartiles were further evaluated for their antibacterial activities against several highly antibitoic resistant pathogens (Table 3). These included clinical isolates of MRSA, ESBL E. cloacae, and multidrug resistant Pseudomonas strains including Brazilian clinical isolates of P. aeruginosa that are resistant to meropenem, ceftazidime, piperacillin/tazobactam, ciprofloxacin, cefepime and polymyxin B, and the Liverpool Epidemic Strains. […] Such results characterize the developed peptides as excellent antibiotic candidates, providing new means for treating most dangerous and severe forms of human infections.

[9] = system: ESBL E. cloacae; type: cell-based, Enterobacter cloacae
Protocol: as §2, §3

[10] = system: Liverpool Epidemic Strains; type: cell-based, Pseudomonas aeruginosa
Protocol: as §2, §3

[11] = system: MCP-1 release by human PBMC; assay: Chemokine induction in PBMC (capture ELISA); type: cell-based; conditions: background (204) subtracted
Outline: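 Heparinized blood from healthy volunteers; Ficoll-isolated human PBMC (7.5×10^5) treated with peptides at 20 or 100 μg/ml for 24 hours at 37° C, 5% CO2. Cell-free supernatants assayed for MCP-1 by capture ELISA.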

[12] = system: MCP-3 release by human PBMC; assay: Chemokine induction in PBMC (capture ELISA); type: cell-based; conditions: background (6) subtracted
Outline: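 Human PBMC from healthy donors (Ficoll-isolated), 7.5×10^5 cells at 0.75–1×10^6 cells/ml, treated with peptides at 20 or 100 μg/ml for 24 h at 37° C, 5% CO2. MCP-3 in cell-free supernatants measured by capture ELISA.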

[13] = system: CXCL1 (Gro-α) release by human PBMC; assay: Chemokine induction in PBMC (capture ELISA); type: cell-based; conditions: background (196) subtracted
Outline: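 Human PBMC from healthy donors' heparinised blood (Ficoll), 7.5×10^5 cells treated with 20 or 100 μg/ml peptide for 24 h at 37° C, 5% CO2. Cell-free supernatants assayed for CXCL1 by capture ELISA.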

[14] = system: ESBL E. coli clinical strain 64771; type: cell-based; conditions: ESBL clinical strain 64771
Protocol: as §2
(§4) The selected peptides were synthesized and assayed against several major antibiotic-resistant pathogens. Initially, the peptides were screened against the laboratory strain of P. aeruginosa PAO1 to compare the results with the training data. […] The antibacterial activity in the form of minimal inhibitory concentration (MIC) of the other studied peptides was assessed in greater depth (Table 9) against many highly antibiotic resistanct pathogens.

[15] = system: ESBL Klebsiella pneumonia clinical strain 63575; type: cell-based
Protocol: as §2, §4

[16] = system: multidrug resistant Pseudomonas maltophilia ATCC13637; type: cell-based
Protocol: as §2, §4

[17] = system: multidrug resistant Brazilian clinical isolates of P. aeruginosa; type: cell-based, Pseudomonas aeruginosa
Protocol: as §2, §3

SMILES | MIC [2] | MIC [4] | MIC [8] | MIC [9] | MIC [10] | MIC [14] | MIC [15] | MIC [16] | MIC [17] | MIC against P. aeruginosa PAO1 ([1]; PAO1) | Chemokine induction MCP-1 ([11]; 20 μg/ml peptide) | Chemokine induction MCP-1 ([11]; 100 μg/ml peptide) | Chemokine induction MCP-3 ([12]; 20 μg/ml peptide) | Chemokine induction MCP-3 ([12]; 100 μg/ml peptide) | Chemokine induction Gro-α ([13]; 20 μg/ml peptide) | Chemokine induction Gro-α ([13]; 100 μg/ml peptide) | other results
CC[C@H](C)[C@H](NC(=O)[C@H](CCCNC(=N)N)NC(=O)[C@H](C)NC(=O)[C@H](CC(C)C)NC(=O)[C@@H](N)CCCNC(=N)N)C(=O)N[C@H](C(=O)N[C@H](C(=O)N[C@H](C(=O)N[C@@H](CCCNC(=N)N)C(=O)N[C@H](C(=O)N[C@@H](C)C(=O)N[C@@H](CCCNC(=N)N)C(N)=O)C(C)C)[C@@H](C)CC)C(C)C)C(C)C [Bac2A, RLARIVVIRVAR-NH2, reference compound] (H-RLARIVVIRVAR-NH2; N-terminus assumed) | 12 µM (≈ 17 µg/mL) | 24 µM (≈ 34.1 µg/mL) | 24 µM (≈ 34.1 µg/mL) | 24 µM (≈ 34.1 µg/mL) | 12 µM (≈ 17 µg/mL) | 24 µM (≈ 34.1 µg/mL) | 192 µM (≈ 273 µg/mL) | 3 µM (≈ 4.26 µg/mL) | – | – | 316 pg/mL | 442 pg/mL | 2 pg/mL | 2 pg/mL | 9 pg/mL | 8 pg/mL | MIC P. aerug ([1]; PAO1): 50 mg/L (≈ 35.2 µM); MIC E. faecalis [2]: 17 mg/L (≈ 12 µM); MIC E. coli [3]: 17 mg/L (≈ 12 µM); MIC S. aureus [4]: 17 mg/L (≈ 12 µM); MIC S. epi. [5]: 4 mg/L (≈ 2.82 µM); MIC C. albicans [6]: 9 mg/L (≈ 6.33 µM); MIC S. typhi [7]: 34 mg/L (≈ 23.9 µM)
CC[C@H](C)[C@H](NC(=O)[C@H](Cc1ccccc1)NC(=O)[C@H](CCCCN)NC(=O)[C@H](Cc1ccccc1)NC(=O)[C@H](CCCNC(=N)N)NC(=O)[C@@H](N)CCCNC(=N)N)C(=O)N[C@@H](CCCNC(=N)N)C(=O)N[C@@H](Cc1c[nH]c2ccccc12)C(=O)N[C@@H](Cc1c[nH]c2ccccc12)C(N)=O [HHC100, RRFKFIRWW] (H-RRFKFIRWW-NH2; N-terminus assumed) | 12 µM (≈ 16.7 µg/mL) | 6 µM (≈ 8.36 µg/mL) | 6 µM (≈ 8.36 µg/mL) | 12 µM (≈ 16.7 µg/mL) | 3 µM (≈ 4.18 µg/mL) | 12 µM (≈ 16.7 µg/mL) | 49 µM (≈ 68.3 µg/mL) | 0.8 µM (≈ 1.11 µg/mL) | – | 4 to 12 µM | 179 pg/mL | 197 pg/mL | -1 pg/mL | 0 pg/mL | -18 pg/mL | -43 pg/mL | –
CC(C)[C@H](NC(=O)[C@H](CCCNC(=N)N)NC(=O)[C@H](CCCCN)NC(=O)[C@@H](NC(=O)[C@H](Cc1ccccc1)NC(=O)[C@H](CCCCN)NC(=O)[C@H](Cc1c[nH]c2ccccc12)NC(=O)[C@@H](NC(=O)[C@H](C)N)C(C)C)C(C)C)C(N)=O [HHC123, AVWKFVKRV] (H-AVWKFVKRV-NH2; N-terminus assumed) | >240 µM | 240 µM (≈ 272 µg/mL) | 240 µM (≈ 272 µg/mL) | >240 µM | 120 µM (≈ 136 µg/mL) | 120 µM (≈ 136 µg/mL) | >240 µM | 60 µM (≈ 67.9 µg/mL) | – | – | 46 pg/mL | 204 pg/mL | 0 pg/mL | 3 pg/mL | -25 pg/mL | 17 pg/mL | antimicrobial activity against P. aeruginosa PAO1 (in words) ([1]; laboratory strain P. aeruginosa PAO1): did not return any generally active substances

Now from value to molecule, other results behind:

MIC [2] | MIC [4] | MIC [8] | MIC [9] | MIC [10] | MIC [14] | MIC [15] | MIC [16] | MIC [17] | MIC against P. aeruginosa PAO1 ([1]; PAO1) | SMILES | Chemokine induction MCP-1 ([11]; 20 μg/ml peptide) | Chemokine induction MCP-1 ([11]; 100 μg/ml peptide) | Chemokine induction MCP-3 ([12]; 20 μg/ml peptide) | Chemokine induction MCP-3 ([12]; 100 μg/ml peptide) | Chemokine induction Gro-α ([13]; 20 μg/ml peptide) | Chemokine induction Gro-α ([13]; 100 μg/ml peptide) | other results
23 µM (≈ 33.9 µg/mL) | 3 µM (≈ 4.42 µg/mL) | 3 µM (≈ 4.42 µg/mL) | 6 µM (≈ 8.83 µg/mL) | 0.3 µM (≈ 0.442 µg/mL) | 3 µM (≈ 4.42 µg/mL) | 11 µM (≈ 16.2 µg/mL) | 0.7 µM (≈ 1.03 µg/mL) | 12 µM (≈ 17.7 µg/mL) | – | CC(C)C[C@H](NC(=O)[C@H](Cc1c[nH]c2ccccc12)NC(=O)[C@H](Cc1c[nH]c2ccccc12)NC(=O)[C@H](CCCCN)NC(=O)[C@H](Cc1c[nH]c2ccccc12)NC(=O)[C@H](CCCNC(=N)N)NC(=O)[C@H](CCCNC(=N)N)NC(=O)[C@H](Cc1c[nH]c2ccccc12)NC(=O)[C@@H](N)CCCNC(=N)N)C(N)=O [HHC9, RWRRWKWWL] (H-RWRRWKWWL-NH2; N-terminus assumed) | 9 pg/mL | 4493 pg/mL | -1 pg/mL | 48 pg/mL | -25 pg/mL | 5 pg/mL | –
24 µM (≈ 34.7 µg/mL) | 3 µM (≈ 4.33 µg/mL) | 3 µM (≈ 4.33 µg/mL) | 12 µM (≈ 17.3 µg/mL) | 1.5 µM (≈ 2.17 µg/mL) | 6 µM (≈ 8.66 µg/mL) | 24 µM (≈ 34.7 µg/mL) | 0.8 µM (≈ 1.16 µg/mL) | 24 µM (≈ 34.7 µg/mL) | – | CC[C@H](C)[C@H](NC(=O)[C@H](CCCCN)NC(=O)[C@H](Cc1c[nH]c2ccccc12)NC(=O)[C@H](Cc1c[nH]c2ccccc12)NC(=O)[C@H](CCCNC(=N)N)NC(=O)[C@@H](N)Cc1c[nH]c2ccccc12)C(=O)N[C@@H](Cc1c[nH]c2ccccc12)C(=O)N[C@@H](CCCCN)C(=O)N[C@@H](CCCNC(=N)N)C(N)=O [HHC20, WRWWKIWKR] (H-WRWWKIWKR-NH2; N-terminus assumed) | 290 pg/mL | 974 pg/mL | 8 pg/mL | 12 pg/mL | 169 pg/mL | 33 pg/mL | –
24 µM (≈ 34 µg/mL) | 3 µM (≈ 4.24 µg/mL) | 3 µM (≈ 4.24 µg/mL) | 6 µM (≈ 8.49 µg/mL) | 6 µM (≈ 8.49 µg/mL) | 6 µM (≈ 8.49 µg/mL) | 12 µM (≈ 17 µg/mL) | 1.5 µM (≈ 2.12 µg/mL) | – | 4 to 12 µM | CC[C@H](C)[C@H](N)C(=O)N[C@@H](Cc1c[nH]c2ccccc12)C(=O)N[C@@H](Cc1c[nH]c2ccccc12)C(=O)N[C@@H](CCCCN)C(=O)N[C@@H](Cc1c[nH]c2ccccc12)C(=O)N[C@@H](CCCNC(=N)N)C(=O)N[C@@H](CCCNC(=N)N)C(=O)N[C@@H](Cc1c[nH]c2ccccc12)C(=O)N[C@H](C(N)=O)C(C)C [HHC77, IWWKWRRWV] (H-IWWKWRRWV-NH2; N-terminus assumed) | 98 pg/mL | 4548 pg/mL | 0 pg/mL | 23 pg/mL | -22 pg/mL | 50 pg/mL | –
